Test [1] deals with T1, urotensin-II receptor (UTS2R) (Homo sapiens, UniProt Q9UKP6).
T1 construct: expressed in transfected cells; host or cells: HEK293A
T1 sequence (Q9UKP6 1-389): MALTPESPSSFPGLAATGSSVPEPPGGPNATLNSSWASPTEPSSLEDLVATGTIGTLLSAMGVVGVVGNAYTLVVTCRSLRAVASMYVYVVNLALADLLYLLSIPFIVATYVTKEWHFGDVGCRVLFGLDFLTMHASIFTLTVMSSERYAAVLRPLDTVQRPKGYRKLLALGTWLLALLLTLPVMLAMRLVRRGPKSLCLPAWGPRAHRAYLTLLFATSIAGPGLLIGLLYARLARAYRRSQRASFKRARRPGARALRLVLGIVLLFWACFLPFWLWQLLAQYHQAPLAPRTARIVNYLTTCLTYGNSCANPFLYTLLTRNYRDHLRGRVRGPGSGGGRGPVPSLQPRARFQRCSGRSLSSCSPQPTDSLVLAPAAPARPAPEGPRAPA
In words: TGFα-shedding assay, concentration-response on UTS2R (endogenous G protein), with or without urantide. Type of test: cell-based. The conditions noted are these: for UTS2R activation: TGFα-shedding, screening 10 μM and response curves (Fig. 1a, Supplementary Fig. 1a).

Test [2] deals with T2, FLAG-UTS2R (urotensin-II receptor) (human) (UniProt Q9UKP6).
T2 sequence: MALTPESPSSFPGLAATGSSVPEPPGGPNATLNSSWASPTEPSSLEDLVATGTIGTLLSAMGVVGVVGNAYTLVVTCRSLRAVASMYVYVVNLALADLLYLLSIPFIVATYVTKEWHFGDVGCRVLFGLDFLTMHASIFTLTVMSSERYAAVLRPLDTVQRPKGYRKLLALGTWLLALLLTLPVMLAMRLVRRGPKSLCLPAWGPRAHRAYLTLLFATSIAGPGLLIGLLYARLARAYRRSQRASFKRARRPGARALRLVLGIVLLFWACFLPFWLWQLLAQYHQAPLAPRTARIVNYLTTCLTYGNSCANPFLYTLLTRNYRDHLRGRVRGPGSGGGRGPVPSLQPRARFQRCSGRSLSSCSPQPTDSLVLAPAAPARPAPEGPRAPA

The results in this text go back to PMC10175918 (Communications Biology, 2023).

With `N#C[C@@]1(c2ccc3c(N)ncnn23)O[C@H](CO)[C@@H](O)[C@H]1O` [GS-441524], the UTS2R activation result in test [1] is “no effect on UTS2R activation”.
Same read-out and setting: next, `C[C@H](NP(=O)(O)OC[C@H]1O[C@@](C#N)(c2ccc3c(N)ncnn23)[C@H](O)[C@@H]1O)C(=O)O` [GS-704277]: “no effect on UTS2R activation”.
The term Emax denotes the size of the effect at its maximum, as opposed to the concentration needed. Turning to `CC(C)[C@H](NC(=O)[C@@H]1CSSC[C@H](NC(=O)[C@H](CC(=O)O)NC(=O)[C@@H]2CCCN2C(=O)[C@@H](NC(=O)[C@@H](N)CCC(=O)O)[C@@H](C)O)C(=O)N[C@@H](Cc2ccccc2)C(=O)N[C@@H](Cc2c[nH]c3ccccc23)C(=O)N[C@@H](CCCCN)C(=O)N[C@@H](Cc2ccc(O)cc2)C(=O)N1)C(=O)O` [UT2], the maximal effect (Emax) in test [1] (WT UTS2R, without chimeric Gα protein, read-out: Emax) stood at 59 ± 0.7%. For the same molecule, the activation at 0.1 µM in test [1] (compound concentration Log10 (M) -7, without urantide, read-out: UTS2R activation (%AP-TGFα release)) was 59.6%. Moreover, the activation at 0.01 µM in test [1] (compound concentration Log10 (M) -8, without urantide, read-out: UTS2R activation (%AP-TGFα release)) came out at 60.1%. Besides, the activation at 0.001 µM in test [1] (compound concentration Log10 (M) -9, without urantide, read-out: UTS2R activation (%AP-TGFα release)) turned out to be 58.8%. Moreover, the activation at 0.0001 µM in test [1] (compound concentration Log10 (M) -10, without urantide, read-out: UTS2R activation (%AP-TGFα release)) stood at 51.6%. Moreover, the activation at 10 pM in test [1] (compound concentration Log10 (M) -11, without urantide, read-out: UTS2R activation (%AP-TGFα release)) was 18.4%.
In test [2], ETPDCFWKYCV [urotensin-II (UT2), endogenous peptidic ligand of UTS2R] registered a TGFα-shedding assay (AP-TGFα release), untagged UTS2R in HEK293A cells: Emax of receptor activation by UT2 (%AP-TGFα release) of 59 and a TGFα-shedding assay (AP-TGFα release), untagged UTS2R in HEK293A cells: pEC50 of receptor activation by UT2 of 10.7.
